Assay results published in US20140243195A1, “N-Thio-anthranilamide compounds and their use as pesticides” (BASF SE, priority 2011, published 2014).

Tests used:
Type in all cases: in vivo
[1] = system: Vetch Aphid (Megoura viciae); assay: Vetch aphid (Megoura viciae) broad bean leaf disk microtiter test; conditions: foliar, 120 h, adult aphids, after 5 days, in comparison with untreated controls
Method: For evaluating control of vetch aphid (Megoura viciae) through contact or systemic means the test unit consisted of 24-well-microtiter plates containing broad bean leaf disks.
The compounds were formulated using a solution containing 75% v/v water and 25% v/v DMSO. Different concentrations of formulated compounds were sprayed onto the leaf disks at 2.5 μl, using a custom built micro atomizer, at two replications.
After application, the leaf disks were air-dried and 5-8 adult aphids placed on the leaf disks inside the microtiter plate wells. The aphids were then allowed to suck on the treated leaf disks and incubated at about 23±1° C. and about 50±5% relative humidity for 5 days. Aphid mortality and fecundity was then visually assessed.

[2] = system: Tobacco Budworm (Heliothis virescens); assay: Tobacco budworm (Heliothis virescens) I spray test on cotton plants; conditions: 96 h, larvae, 4 days after treatment, in comparison with untreated controls
Method: (§1) The active compounds were formulated in cyclohexanone as a 10,000 ppm solution supplied in tubes. The tubes were inserted into an automated electrostatic sprayer equipped with an atomizing nozzle and they served as stock solutions for which lower dilutions were made in 50% acetone:50% water (v/v). A nonionic surfactant (Kinetic®) was included in the solution at a volume of 0.01% (v/v).
Cotton plants were grown 2 plants to a pot and selected for treatment at the cotyledon stage. Test solutions were sprayed onto the foliage by an automated electrostatic plant sprayer equipped with an atomizing spray nozzle. The plants were dried in the sprayer fume hood and then removed from the sprayer. Each pot was placed into perforated plastic bags with a zip closure. About 10 to 11 budworm larvae were placed into the bag and the bags zipped closed. Test plants were maintained in a growth room at about 25° C. and about 20-40% relative humidity for 4 days, avoiding direct exposure to fluorescent light (24 hour photoperiod) to prevent trapping of heat inside the bags. Mortality and reduced feeding were assessed 4 days after treatment, compared to untreated control plants.

[3] = system: Diamond Back Moth (Plutella xylostella); assay: Diamond back moth (Plutella xylostella) cabbage leaf dip test; conditions: foliar, 3rd instar larvae, 72 hours after treatment, in comparison with untreated controls
Method: The active compound was dissolved at the desired concentration in a mixture of 1:1 (vol:vol) distilled water:acetone. Surfactant (Alkamuls® EL 620) is added at a rate of 0.1% (vol/vol).The test solution was prepared at the day of use.
Leaves of cabbage were dipped in test solution and air-dried. Treated leaves were placed in petri dishes lined with moist filter paper and inoculated with ten 3rd instar larvae. Mortality was recorded 72 hours after treatment. Feeding damages were also recorded using a scale of 0-100%.

[4] = system: Mediterranean Fruitfly (Ceratitis capitata); assay: Mediterranean fruitfly (Ceratitis capitata) microtiter plate insect diet test; conditions: 120 h, egg and larval mortality after 5 days, in comparison with untreated controls
Method: For evaluating control of Mediterranean fruitfly (Ceratitis capitata) the test unit consisted of microtiter plates containing an insect diet and 50-80 C. capitata eggs.
(§2) The compounds were formulated using a solution containing 75% v/v water and 25% v/v DMSO. Different concentrations of formulated compounds were sprayed onto the insect diet at 5 μl, using a custom built micro atomizer, at two replications.
After application, microtiter plates were incubated at about 28±1° C. and about 80±5% relative humidity for 5 days. Egg and larval mortality was then visually assessed.

[5] = system: Boll Weevil (Anthonomus grandis); assay: Boll weevil (Anthonomus grandis) microtiter plate insect diet test; conditions: 120 h, egg and larval mortality after 5 days, in comparison with untreated controls
Method: For evaluating control of boll weevil (Anthonomus grandis) the test unit consisted of 96-well-microtiter plates containing an insect diet and 5-10 A. grandis eggs.
as §2
After application, microtiter plates were incubated at about 25±1° C. and about 75±5% relative humidity for 5 days. Egg and larval mortality was then visually assessed.

[6] = system: Colorado Potato Beetle (Leptinotarsa decemlineata); assay: Colorado potato beetle (Leptinotarsa decemlineata) spray test on eggplant foliage; conditions: foliar, 96 h, beetle larvae, 4 days after treatment, in comparison with untreated controls
Method: as §1
Eggplants were grown 2 plants to a pot and were selected for treatment at the 1st true leaf stage. Test solutions were sprayed onto the foliage by an automated electrostatic plant sprayer equipped with an atomizing spray nozzle. The plants were dried in the sprayer fume hood and then removed from the sprayer. The treated foliage was then cut and removed from the pot and placed in a Petri dish lined with moistened filter paper. Five beetle larvae were introduced into each Petri dish and the dish was covered by a Petri dish lid. Petri dishes were maintained in a growth room at about 25° C. and about 20-40% relative humidity for 4 days, avoiding direct exposure to fluorescent light (24 hour photoperiod) to prevent trapping of heat inside the dishes. Mortality and reduced feeding were assessed 4 days after treatment, compared to untreated control plants.

[7] = system: Cowpea Aphid (Aphis craccivora); assay: Cowpea aphid (Aphis craccivora) spray test on potted cowpea plants; conditions: assessed after 72 hours, in comparison with untreated controls
Method: The active compound was dissolved at the desired concentration in a mixture of 1:1 (vol:vol) distilled water:acetone. Surfactant (Alkamuls® EL 620) is added at a rate of 0.1% (vol/vol). The test solution was prepared at the day of use.
Potted cowpea plants were colonized with approximately 50-100 aphids of various stages by manually transferring a leaf tissue cut from infested plant 24 hours before application. Plants were sprayed after the pest population has been recorded. Treated plants were maintained on light carts at about 28° C. Percent mortality was assessed after 72 hours.

[8] = system: Southern Armyworm (Spodoptera eridania); assay: Southern armyworm (Spodoptera eridania) spray test on lima bean plants; conditions: 96 h, larvae, 4 days after treatment, in comparison with untreated controls
Method: as §1
Lima bean plants (variety Sieva) were grown 2 plants to a pot and selected for treatment at the 1st true leaf stage. Test solutions were sprayed onto the foliage by an automated electrostatic plant sprayer equipped with an atomizing spray nozzle. The plants were dried in the sprayer fume hood and then removed from the sprayer. Each pot was placed into perforated plastic bags with a zip closure. About 10 to 11 armyworm larvae were placed into the bag and the bags zipped closed. Test plants were maintained in a growth room at about 25° C. and about 20-40% relative humidity for 4 days, avoiding direct exposure to fluorescent light (24 hour photoperiod) to prevent trapping of heat inside the bags. Mortality and reduced feeding were assessed 4 days after treatment, compared to untreated control plants.

[9] = system: Orchid Thrips (Dichromothrips corbetti); assay: Orchid thrips (Dichromothrips corbetti) floral-immersion test; conditions: adult thrips, 72 hours after treatment, in comparison with untreated controls
Method: Dichromothrips corbetti adults used for bioassay were obtained from a colony maintained continuously under laboratory conditions. For testing purposes, the test compound was diluted in a 1:1 mixture of acetone:water (vol:vol), plus 0.01% vol/vol Alkamuls® EL 620 surfactant.
Thrips potency of each compound was evaluated by using a floral-immersion technique. Plastic petri dishes were used as test arenas. All petals of individual, intact orchid flowers were dipped into treatment solution and allowed to dry. Treated flowers were placed into individual petri dishes along with—about 20 adult thrips. The petri dishes were then covered with lids. All test arenas were held under continuous light and a temperature of about 28° C. for duration of the assay. After 3 days, the numbers of live thrips were counted on each flower, and along inner walls of each petri dish. The percent mortality was recorded 72 hours after treatment.

Cc1cc(Cl)cc(C(=O)N=S2CCCC2)c1NC(=O)c1ccc(C(F)(F)F)cc1-c1ncccc1Cl [Compound 1-7, 5-chloro-2-[[2-(3-chloro-2-pyridyl)-4-(trifluoromethyl)benzoyl]amino]-3-methyl-N-(thiolan-1-ylidene)benzamide]
≥ 75%: mortality at 2500 ppm [1] | mortality at 2500 ppm [2] | mortality at 300 ppm [3] | mortality at 2500 ppm [4] | mortality at 2500 ppm [5] | mortality at 10 ppm [6] | mortality at 300 ppm [7] | mortality at 300 ppm [8] | mortality at 500 ppm [9]
